# Laboratory results: article PMC9685055, “Biological activity of new bioactive steroids deriving from biotransformation of cortisone” (Microbial Cell Factories, 2022)
# Key:
# [1] = test system: IL-1α secretion in TNFα-stimulated HaCaT cells; assay: TNFα-induced IL-1α secretion, ELISA; format: cell-based, human; settings: 10 μM pretreatment 24 h, then 10 ng/mL TNFα 1 h, supernatant 24 h later
# Procedure: HaCaT cells were cultured with Dulbecco’s modified Eagle’s medium High Glucose (Lonza, Milan, Italy) supplemented with 10% FBS, 100 U/mL penicillin, 100 μg/mL streptomycin and 2 mM L-glutamine as previously described. Cells were maintained in a humidified incubator at 37 °C with 5% CO2 and incubated until the monolayer was 80% confluent. Medium was changed every 2 days.
# HaCaT cells were pretreated with or without 10 μM of both SCA and SCB for 24 h. Stock solutions of the two compounds were prepared in DMSO immediately before use and diluted to the final concentration in the culture medium. In some sets of experiments, betamethasone-17-valerate (10 µg/mL) served as a positive control; dimethyl sulfoxide (DMSO) served as a solvent control. After the pretreatments, cells were stimulated with 10 ng/mL TNFα for 1 h to induce the NFκB signaling pathway. Then, media were replaced with fresh culture medium. […]
# IL-1α secretion, after the treatment with 10 and 20 µM of each compound and together at the same concentrations, was assayed by a commercially available ELISA kit (Thermo Scientific, Italy). […] The optical absorbance was measured with a spectrophotometer microplate reader at 450 nm and correction at 530 nm. Final concentrations were calculated by interpolation with a standard curve of Recombinant Human IL-1α provided by the kit and results expressed as pg/mL.
# [2] = test system: Salmonella typhimurium TA100; assay: Ames test (plate incorporation), strain TA100; format: cell-based
# Procedure: (§1) Mutagenicity assay was performed following the plate incorporation method with the histidine-requiring Salmonella typhimurium mutant TA98 and TA100 strains. All strains (100 µl per plate of fresh overnight cultures) were checked with and without the addition of 0.5 mL of a 5% S9 exogenous metabolic activator (S9 mix). The lyophilized post-mitochondrial supernatant S9 mix (Aroclor 1254-induced, Sprague–Dawley male rat liver in 0.154 M KCl solution, Molecular Toxicology, Inc., Boone, NC, USA), commonly used for the activation of pro-mutagens to mutagenic metabolites, was stored at− 80 °C before use. The concentration tested for all the samples were 1, 5, 10, 50, 100 µL/plate of a stock solution 100 mg/mL.
# (§2) A fully-grown culture of the appropriate tester strain (0.1 mL) was added to 2 mL Molten Top Agar (0.6% agar, 0.6% NaCl, 0.5 mM L-histidine/biotin solution) at 46 °C, together with 0.1 mL of each sample solution at different concentrations, and 0.5 mL S9 mix for assays with metabolic activation or 0.5 mL of phosphate buffer pH 7.4 to test without metabolic activation. The ingredients were thoroughly mixed and poured onto minimal glucose agar plates (1.5% agar in 2% Vogel–Bonner medium E with 5% glucose solution).
# (§3) DMSO was used as a negative control (100 µl/plate). Positive controls were prepared as follows: 2-aminoanthracene (2 µg/plate) and 2-nitrofluorene (2 µg/plate) for TA98 with and without metabolic activator (S9 mix) respectively; 2-aminoanthracene (2 µg/plate) and sodium azide (2 µg/plate) for TA100, with and without metabolic activator (S9 mix) respectively. The plates were incubated at 37 °C for 72 h and then the his^+ revertants were checked and counted using a Colony Counter 560 Suntex (Antibioticos, Italy). A sample was considered mutagenic when the observed number of colonies was at least twofold over the spontaneous level of revertants. All determinations were made in triplicate. Relative standard deviations were computed using the statistical software […] 6.0 (StatSoft Italia srl).
# [3] = test system: primary cultures of rat cerebral cortex neurons; assay: Glutamate-induced neurotoxicity, MTT viability; format: cell-based; settings: 10 μM, added 15 min before glutamate; viability 24 h later
# Procedure: Primary cultures of cortical neurons have been prepared from 1 day-old male rats [41]. After re-suspension in the plating medium, the cells were counted and then plated on poly-l-lysine (5 μg/mL)-coated dishes at a density of 2.5 × 10^6 cells/dish or on poly-l-lysine (5 μg/mL)-coated 24-well plates at a density of 0.5 × 10^6 cells/dish. The plating medium consisted of Eagle's Basal Medium supplemented with 10% inactivated fetal calf serum, 25 mM KCl, 2 mM glutamine and 100 μg/mL gentamycine. […] Cytosine arabinoside (10 μM) was added within 24 h of plating to prevent glial cell proliferation [41]. The cultures were maintained for 8 days in vitro before experiments.
# The cultures were then returned to the incubator in their growth medium. 24 h later, the glutamate-induced neurotoxicity was evaluated by measuring the neuronal viability. The different drugs tested were added 15 min before glutamate exposure and were present until the end of the experiment.
# The integrity of mitochondrial enzymes in viable neurons was determined with a colorimetric assay using 3-[4,5-dimethylthial-2-yl]-3, 5-diphenyl-tetrazolinium bromide (MTT) salt, as described by Mosdam [42]. […] The precipitated dye was dissolved in isopropanol with 1 M HCl and colorimetrically (absorbance at 570 nm) quantified. The results were expressed as values of absorbance at 570 nm.
# cyclooxygenase (COX) = target: T1, cyclooxygenase (COX) (Ovis aries, UniProt P05979); assay: Cyclooxygenase inhibitory assay (fluorescence COX activity kit); format: biochemical; settings: purified COX preparation, 0.1, 1, 10 and 100 µM, 5 min at 25 °C
# T1 construct: purchased Cayman 700200
# T1 sequence (P05979 25-600): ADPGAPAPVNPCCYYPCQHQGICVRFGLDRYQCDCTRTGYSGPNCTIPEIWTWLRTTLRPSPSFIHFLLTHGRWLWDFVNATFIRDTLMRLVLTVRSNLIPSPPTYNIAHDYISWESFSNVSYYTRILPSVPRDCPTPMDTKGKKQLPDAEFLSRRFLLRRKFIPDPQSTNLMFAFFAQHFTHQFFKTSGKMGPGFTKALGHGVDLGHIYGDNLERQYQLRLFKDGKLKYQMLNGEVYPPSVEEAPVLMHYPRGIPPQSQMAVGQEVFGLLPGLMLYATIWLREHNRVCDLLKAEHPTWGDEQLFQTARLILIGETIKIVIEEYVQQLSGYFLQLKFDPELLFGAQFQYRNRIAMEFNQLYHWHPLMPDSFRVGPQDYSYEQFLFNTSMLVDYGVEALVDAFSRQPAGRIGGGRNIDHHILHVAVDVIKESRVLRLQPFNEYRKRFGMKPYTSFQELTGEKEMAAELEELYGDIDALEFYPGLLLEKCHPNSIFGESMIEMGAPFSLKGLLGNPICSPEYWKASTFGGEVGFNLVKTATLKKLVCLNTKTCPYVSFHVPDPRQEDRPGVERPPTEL
# Procedure: Cyclooxygenase (COX) activity assay was determined by using a fluorescence COX activity assay kit (Cayman, No. 700200) for detecting COX-1 and COX-2 activity in purified enzyme and tissue homogenate preparations. The assay was conducted by monitoring the appearance of fluorescent compound resofurin in accordance to the supplier recommendation. Aspirin (acetylsalicylic acid; 50 µM) served as positive control. The test compounds were dissolved in 1–2% DMSO (v/v) at 4 different concentrations (0.1, 1, 10 and 100 µM) and added to a purified COX preparation. A 1–2% DMSO solution was added to control plates. The plates were shaken for a few seconds and incubated for 5 min at 25 °C. The fluorescence was measured by using an excitation wavelength of 540 nm and an emission wavelength of 590 nm. Average fluorescent values were calculated for all the samples (n = 3/group) in order to determine the percentage of inhibition in respect to control (i.e. untreated) plates.
# [4] = test system: Salmonella typhimurium TA98; assay: Ames test (plate incorporation), strain TA98; format: cell-based
# Procedure: as §1, §2, §3
# [5] = TA100, + S9, 1 µL/plate of a stock solution 100 mg/mL
# [6] = TA100, + S9, 5 µL/plate of a stock solution 100 mg/mL
# [7] = TA100, + S9, 10 µL/plate of a stock solution 100 mg/mL
# [8] = TA100, + S9, 50 µL/plate of a stock solution 100 mg/mL
# [9] = TA100, + S9, 100 µL/plate of a stock solution 100 mg/mL
# [10] = TA100, − S9, 1 µL/plate of a stock solution 100 mg/mL
# [11] = TA100, − S9, 5 µL/plate of a stock solution 100 mg/mL
# [12] = TA100, − S9, 10 µL/plate of a stock solution 100 mg/mL
# [13] = TA100, − S9, 50 µL/plate of a stock solution 100 mg/mL
# [14] = TA100, − S9, 100 µL/plate of a stock solution 100 mg/mL
# [15] = TA98, + S9, 1 µL/plate of a stock solution 100 mg/mL
# [16] = TA98, + S9, 5 µL/plate of a stock solution 100 mg/mL
# [17] = TA98, + S9, 10 µL/plate of a stock solution 100 mg/mL
# [18] = TA98, + S9, 50 µL/plate of a stock solution 100 mg/mL
# [19] = TA98, + S9, 100 µL/plate of a stock solution 100 mg/mL
# [20] = TA98, − S9, 1 µL/plate of a stock solution 100 mg/mL
# [21] = TA98, − S9, 5 µL/plate of a stock solution 100 mg/mL
# [22] = TA98, − S9, 10 µL/plate of a stock solution 100 mg/mL
# [23] = TA98, − S9, 50 µL/plate of a stock solution 100 mg/mL
# [24] = TA98, − S9, 100 µL/plate of a stock solution 100 mg/mL
smiles,measurement,setting,value
"Cc1ccc(O)c2c1CCC1C3CC[C@](O)(C(=O)CO)[C@@]3(C)CC(=O)[C@@]21O (stereo partly drawn) [SCA, 1,9β,17,21‐tetrahydoxy‐4‐methyl‐19‐nor‐9β‐pregna‐1,3,5(10)‐trien‐11,20‐dione]",effect on TNFα-triggered IL-1α release,[1],markedly inhibited
same,genotoxic activity (Ames test),[2],For none of the samples genotoxic activity emerged
same,average number of revertant colonies,[2]; [5],179.3
same,t/c (revertant colonies in treated plates/untreated plates),[2]; [5],1.0
same,average number of revertant colonies,[2]; [6],181.7
same,t/c (revertant colonies in treated plates/untreated plates),[2]; [6],1.0
same,average number of revertant colonies,[2]; [7],185.3
same,t/c (revertant colonies in treated plates/untreated plates),[2]; [7],1.0
same,average number of revertant colonies,[2]; [8],205.7
same,t/c (revertant colonies in treated plates/untreated plates),[2]; [8],1.1
same,average number of revertant colonies,[2]; [9],194.3
same,t/c (revertant colonies in treated plates/untreated plates),[2]; [9],1.1
same,average number of revertant colonies,[2]; [10],163.0
same,t/c (revertant colonies in treated plates/untreated plates),[2]; [10],1.0
same,average number of revertant colonies,[2]; [11],164.3
same,t/c (revertant colonies in treated plates/untreated plates),[2]; [11],1.0
same,average number of revertant colonies,[2]; [12],158.0
same,t/c (revertant colonies in treated plates/untreated plates),[2]; [12],1.0
same,average number of revertant colonies,[2]; [13],157.0
same,t/c (revertant colonies in treated plates/untreated plates),[2]; [13],0.9
same,average number of revertant colonies,[2]; [14],166.7
same,t/c (revertant colonies in treated plates/untreated plates),[2]; [14],1.0
same,"effect on glutamate-induced neurotoxicity (cell viability, MTT)",[3],partially reduced
same,effect on COX activity,cyclooxygenase (COX),barely affected COX activity only at the lower concentration tested (0.1 µM)
same,genotoxic activity (Ames test),[4],For none of the samples genotoxic activity emerged
same,average number of revertant colonies,[4]; [15],"43,7"
same,t/c (revertant colonies in treated plates/untreated plates),[4]; [15],1.2
same,average number of revertant colonies,[4]; [16],"43,3"
same,t/c (revertant colonies in treated plates/untreated plates),[4]; [16],1.2
same,average number of revertant colonies,[4]; [17],"41,3"
same,t/c (revertant colonies in treated plates/untreated plates),[4]; [17],1.1
same,average number of revertant colonies,[4]; [18],"39,3"
same,t/c (revertant colonies in treated plates/untreated plates),[4]; [18],1.1
same,average number of revertant colonies,[4]; [19],"41,3"
same,t/c (revertant colonies in treated plates/untreated plates),[4]; [19],1.1
same,average number of revertant colonies,[4]; [20],"17,7"
same,t/c (revertant colonies in treated plates/untreated plates),[4]; [20],0.9
same,average number of revertant colonies,[4]; [21],"23,7"
same,t/c (revertant colonies in treated plates/untreated plates),[4]; [21],1.1
same,average number of revertant colonies,[4]; [22],"23,3"
same,t/c (revertant colonies in treated plates/untreated plates),[4]; [22],1.1
same,average number of revertant colonies,[4]; [23],"25,3"
same,t/c (revertant colonies in treated plates/untreated plates),[4]; [23],1.2
same,average number of revertant colonies,[4]; [24],"20,3"
same,t/c (revertant colonies in treated plates/untreated plates),[4]; [24],1.0
